Measurements from ChEMBL document CHEMBL4184088, “Synthesis and biological evaluation of novel doxorubicin-containing ASGP-R-targeted drug-conjugates” (Bioorg Med Chem Lett, 2018).
Calls of active or inactive are those of the source. The calls are words filed in the database; no cut-off is given here.

Legend:
HepG2 [1] = test: Cytotoxicity against human HepG2 cells assessed as cell viability up to 70 uM after 2 hrs by MTS assay; assay type: functional, cell-based
HepG2 [2] = test: Cytotoxicity against human HepG2 cells assessed as reduction in cell viability at 100 umol after 48 hrs by MTS assay relative to control; assay type: functional
[3] = Drug uptake in human HepG2 cells assessed as doxorubicin conjugates accumulation at 10 uM after 6 hrs by fluorescence assay; assay type: ADME, cell-based; details: hepg2, 6 h
[4] = Drug uptake in human HEK293 cells assessed as assessed as doxorubicin conjugates accumulation at 10 uM after 6 hrs by fluorescence assay; assay type: ADME, cell-based; details: hek293, 6 h
[5] = Drug localization in human HepG2 cell cytoplasm at assessed as doxorubicin conjugates accumulation 10 uM after 24 hrs by DAPI staining-based fluorescence microscopic analysis; assay type: ADME; details: hepg2, 24 h
[6] = Drug uptake in human HEK293 cells assessed as doxorubicin conjugates accumulation at 10 uM after 24 hrs by fluorescence assay; assay type: ADME, cell-based; details: hek293, 24 h
HepG2 [7] = test: Cytostatic activity against human HepG2 cells assessed as cell viability at 0.02 to 70 uM after 48 hrs by MTS assay; assay type: functional, cell-based
[8] = Drug localization in human HepG2 cell nucleus assessed as doxorubicin conjugates accumulation at 10 uM after 24 hrs by DAPI staining-based fluorescence microscopic analysis; assay type: ADME; details: hepg2, 24 h

Row | Structure (SMILES) | Activity (HepG2 [1]) | Activity (HepG2 [2]) | Drug uptake [3] | Drug uptake [4] | Drug uptake [5] | Drug uptake [6] | Activity (HepG2 [7]) | Drug uptake [8]
1 | COc1cccc2c1C(=O)c1c(O)c3c(c(O)c1C2=O)C[C@@](O)(C(=O)CO)C[C@@H]3O[C@H]1C[C@H](NC(=O)CCCc2cn([C@@H]3O[C@H](CO)[C@H](O)[C@H](O)[C@H]3NC(C)=O)nn2)[C@H](O)[C@H](C)O1 | inactive | 20 - 30% | Active | Active | Active | Active |  | 
2 | COc1cccc2c1C(=O)c1c(O)c3c(c(O)c1C2=O)C[C@@](O)(C(=O)CO)C[C@@H]3O[C@H]1C[C@H](N)[C@H](O)[C@H](C)O1.Cl [DOXORUBICIN HYDROCHLORIDE] | inactive |  | Not Active |  |  |  | Active | Not Active
3 | COc1cccc2c1C(=O)c1c(O)c3c(c(O)c1C2=O)C[C@@](O)(C(=O)CO)C[C@@H]3O[C@H]1C[C@H](NC(=O)CCCc2cn(CCO[C@@H]3O[C@H](CO)[C@H](O)[C@H](O)[C@H]3NC(C)=O)nn2)[C@H](O)[C@H](C)O1 | inactive | 20 - 30% | Active | Active | Active |  |  | 
4 | C=CCO[C@@H]1O[C@H](Cn2cc(CCCC(=O)N[C@H]3C[C@H](O[C@H]4C[C@](O)(C(=O)CO)Cc5c(O)c6c(c(O)c54)C(=O)c4c(OC)cccc4C6=O)O[C@@H](C)[C@H]3O)nn2)[C@H](O)[C@H](O)[C@H]1NC(C)=O | inactive | 20 - 30% | Active | Active | Active |  |  | 
